# Test results from US20220062250A1, “COMBINATION OF A SK2 INHIBITOR AND AN INHIBITOR OF A CHECKPOINT PATHWAY, USES AND PHARMACEUTICAL COMPOSITIONS THEREOF” (Apogee Biotechnology Corporation, priority 2019, published 2022).
# Columns and labels:
# [1] = test system: PAN02; test: Surface expression of calreticulin by flow cytometry, PAN02; format: cell-based; details: PAN02 (Pancreas); 40 μM ABC294640, 24 hours; relative to DMSO control = 1.0; logarithmic scale (2.0 = 10-fold increase)
# Procedure: (§1) One indicator that tumor cells are undergoing immunogenic cell death (ICD) is increased expression of calreticulin on the surface of the cells. Calreticulin is normally expressed in the endoplasmic reticulum (ER) of cells; however, when cells are treated with an agent that promotes ER stress, calreticulin expression can be observed on the external surface of the cells. Promotion of ER stress is a typical mechanism for inducing ICD, and therefore measuring the surface expression of calreticulin is an established method for determining if a compound causes ICD. The effects of ABC294640, an inhibitor of sphingosine kinase-2, on the surface expression of calreticulin in several different types of tumor cells were examined. […] The cells were then incubated with a fluorescently labeled antibody that selectively binds to calreticulin, washed and then analyzed by flow cytometry to quantify the amount of surface calreticulin on many individual cells. The resulting data is analyzed by determining the geometric mean of the fluorescence intensity for the population of cells using algorithms well known in the field of flow cytometry. […] The geometric mean of the fluorescence intensity for cell samples treated with DMSO was expressed as 1.0 and the data for cell samples treated with ABC294640 were expressed relative to the DMSO control. […]
# [2] = test system: TRAMP-C2; test: Surface expression of calreticulin by flow cytometry, TRAMP-C2; format: cell-based; details: TRAMP-C2 (Prostate); 40 μM ABC294640, 24 hours; relative to DMSO control = 1.0; logarithmic scale
# Procedure: as §1
# [3] = test system: Neuro-2a; test: Surface expression of calreticulin by flow cytometry, Neuro-2a; format: cell-based, murine; details: Neuro-2a (Neuroblastoma); 40 μM ABC294640, 24 hours; relative to DMSO control = 1.0; logarithmic scale
# Procedure: as §1
# [4] = test system: E0771; test: Surface expression of calreticulin by flow cytometry, E0771; format: cell-based; details: E0771 (Breast); 40 μM ABC294640, 24 hours; relative to DMSO control = 1.0; logarithmic scale
# Procedure: as §1
# [5] = test system: Lewis Lung carcinoma; test: Surface expression of calreticulin by flow cytometry, Lewis Lung carcinoma; format: cell-based, murine; details: 40 μM ABC294640, 24 hours, relative to DMSO control = 1.0, logarithmic scale
# Procedure: as §1
# [6] = test system: B16-F10; test: Surface expression of calreticulin by flow cytometry, B16-F10; format: cell-based, murine; details: B16-F10 (Melanoma); 40 μM ABC294640, 24 hours; relative to DMSO control = 1.0; logarithmic scale
# Procedure: as §1
# [7] = test system: B16 tumors; test: B16 tumor model, ABC294640 in combination with anti-PD-1 antibody (Example 8); format: in vivo, C57BL/6 mice
# Procedure: Agents that induce ICD may enhance the antitumor activity of checkpoint antibodies. […] Anti-mouse PD-1 (Catalog number BE0146) antibody was purchased from BioXCell (West Lebanon, N.H.). C57BL/6 mice were injected with 100,000 B16 cells suspended in PBS into the right hind flank subcutaneously on Day 0 of the experiment. Mice were randomized on Day 3 of the experiment into the following four treatment groups (n=10/group): Control (vehicle only); ABC294640 alone; anti-PD-1 antibody alone; and ABC294640 in combination with anti-PD-1 antibody. ABC294640 was suspended in vehicle (46.7% PEG, 46.7% saline and 6.6% ethanol) and dosed by oral gavage at 50 mg/kg 5 days/week (i.e. days 3-7, 10-14, 17-21, etc.) until sacrifice. Anti-PD-1 antibody was suspended in sterile PBS, and administered by intraperitoneal (i.p.) injection at a dose of 200 μg/mouse on Days 3, 6 and 10. The combination treatment group mice received antibody and ABC294640 treatments concomitantly on days when antibody was scheduled. Control group mice received oral vehicle and/or sterile PBS i.p. on all days that treated mice received either ABC294640 or antibody. Tumors were measured with digital calipers three times per week and volumes were calculated using the formula, (L×W^2)/2. Mice were euthanized when tumor volumes reached ≥3,000 mm^3. […] Tumors in the Control mice grew very aggressively after a lag of approximately 10 days. On Day 19, the average tumor volumes for the Control, ABC294640 alone, anti-PD-1 antibody alone, and combination treatment groups were 1702±373, 892±364, 783±265 and 190±114 mm^3, respectively. […] As directed by the IACUC protocol, each mouse was sacrificed when its tumor volume reached 3,000 mm^3. […] Treatment with ABC294640 alone provided a median survival of 24 days and 30% of the mice were alive on Day 56 when the experiment was terminated (p=0.009).
# [8] = test system: LLC tumors; test: LLC tumor model, ABC294640 in combination with anti-CTLA4 antibody (Example 9); format: in vivo, mice
# Procedure: The combined effects of treating tumor-bearing mice with ABC294640 and anti-CTLA41 antibody were examined in the LLC tumor model. Anti-mouse CTLA-4 (catalog number BE0131) antibody was purchased from BioXCell (West Lebanon, N.H.). Mice were injected with 1,000,000 LLC cells suspended in PBS into the right hind flank subcutaneously on Day 0 of the experiment. Mice were randomized On Day 3 of the experiment into the following four treatment groups (n=5/group): Control (vehicle only); ABC294640 alone; anti-CTLA4 antibody alone; and ABC294640 in combination with anti-CTLA4 antibody. ABC294640 was suspended in vehicle (46.7% PEG, 46.7% saline and 6.6% ethanol) and dosed by oral gavage at 50 mg/kg 5 days/week (i.e. days 3-7, 10-14, 17-21, etc.) until sacrifice. Anti-CTLA4 antibody was suspended in dilution buffer (BioXCell, catalog number IP0070) and administered by intraperitoneal (i.p.) injection at a dose of 200 μg/mouse on Days 3, 6, 10, 13, 17 and 20. The combination treatment group mice received antibody and ABC294640 treatments concomitantly on days when antibody was scheduled. Control group mice received oral vehicle and/or sterile PBS i.p. on all days that treated mice received either ABC294640 or antibody. Tumors were measured with digital calipers three times per week and volumes were calculated using the formula, (L×W^2)/2. Mice were euthanized when tumor volumes reached ≥3,000 mm^3. […] Tumors in the Control mice grew progressively after a lag of approximately 7 days. On Day 21, the average tumor volumes for the Control, ABC294640 alone, anti-CTLA4 antibody alone, and combination treatment groups were 4622±548, 3197±914, 3029±675 and 1274±336 mm^3, respectively. […] As directed by the IACUC protocol, each mouse was sacrificed when its tumor volume reached 3,000 mm^3. […] The combination of ABC294640 plus anti-CTLA4 antibody increased median survival to >26 days, and 60% of these mice survived to Day 26.
# [9] = test system: B16 tumors; test: B16 tumor model, ABC294640 in combination with anti-PD-L1 antibody (Example 10); format: in vivo, mice; details: B16 tumors ≥300 mm^3 at randomization (Day 1); ABC294640 50 mg/kg oral gavage 5 days/week; anti-PD-L1 antibody 200 μg/mouse i.p. Days 1, 3, 5 and 7; Vehicle 8.5
# Procedure: The combined effects of treating tumor-bearing mice with ABC294640 and anti-PD-L1 antibody were examined in the B16 tumor model. Anti-mouse PD-L1 (catalog number BE0101) antibody was purchased from BioXCell (West Lebanon, N.H.). Mice were injected with 100,000 B16 cells suspended in PBS into the right hind flank subcutaneously on Day 0 of the experiment. When the tumor reached a volume of ≥300 mm^3, mice were randomized into the following four treatment groups (n=5-6/group): Control (vehicle only); ABC294640 alone; anti-PD-L1 antibody alone; and ABC294640 in combination with anti-PD-L1 antibody. The day of randomization is noted as Day 1 of the experiment for each mouse. ABC294640 was suspended in vehicle (46.7% PEG, 46.7% saline and 6.6% ethanol) and dosed by oral gavage at 50 mg/kg 5 days/week until sacrifice. Anti-PD-L1 antibody was suspended in dilution buffer (BioXCell, catalog number IP0070) and administered by intraperitoneal (i.p.) injection at a dose of 200 μg/mouse on Days 1, 3, 5 and 7. The combination treatment group mice received antibody and ABC294640 treatments concomitantly on days when antibody was scheduled. Control group mice received oral vehicle and/or sterile PBS i.p. on all days that treated mice received either ABC294640 or antibody. Tumors were measured with digital calipers three times per week and volumes were calculated using the formula, (L×W^2)/2. […]
# [10] = given intravenously every 2 weeks; cited from earlier work
Molecule,Surface calreticulin expression (Geometric mean of fluorescence intensity) [1],Surface calreticulin expression (Geometric mean of fluorescence intensity) [2],Surface calreticulin expression (Geometric mean of fluorescence intensity) [3],Surface calreticulin expression (Geometric mean of fluorescence intensity) [4],Surface calreticulin expression (Geometric mean of fluorescence intensity) [5],Surface calreticulin expression (Geometric mean of fluorescence intensity) [6],"median survival ([7]; B16 tumor-bearing mice, sacrificed at tumor volume 3,000 mm^3, Control 21 days) [days]","mice alive on Day 56 ([7]; B16 tumor-bearing mice, experiment terminated Day 56, all Control animals sacrificed by Day 29) [%]","average tumor volume ([7]; B16 tumors, Day 19, ABC294640 50 mg/kg oral gavage 5 days/week, anti-PD-1 antibody 200 μg/mouse i.p. Days 3, 6 and 10, Control 1702±373) [mm^3]",growth of B16 melanoma tumors (FIG. 6) ([7]; in words),survival of mice bearing B16 melanoma tumors (FIG. 7) ([7]; in words),"median survival ([8]; LLC tumor-bearing mice, sacrificed at tumor volume 3,000 mm^3, Control 19 days) [days]","average tumor volume ([8]; LLC tumors, Day 21, ABC294640 50 mg/kg oral gavage 5 days/week, anti-CTLA4 antibody 200 μg/mouse i.p. Days 3, 6, 10, 13, 17 and 20, Control 4622±548) [mm^3]",growth of LLC lung tumors (FIG. 8) ([8]; in words),survival of mice bearing LLC tumors (FIG. 9) ([8]; in words),median survival [9] [days],tolerated dose [10]
"O=C(NCc1ccncc1)C12CC3CC(C1)CC(c1ccc(Cl)cc1)(C3)C2 [ABC294640, 3-(4-chlorophenyl)-adamantane-1-carboxylic acid (pyridin-4-ylmethyl)amide]",2.31,3.64,3.0,1.46,3.0,2.7,24,30,892±364,partially inhibited,slightly prolonged,22,3197±914,partially inhibited,slightly prolonged,10,–
nivolumab,–,–,–,–,–,–,–,–,–,–,–,–,–,–,–,–,up to 10 mg/kg
